Measured values reported in US20260041677A1, “COMPOSITIONS AND METHODS FOR TREATING ADENOID CYSTIC CARCINOMA” (ELEVAR THERAPEUTICS, INC., priority 2022, published 2026).
Several values for one entry are separate records, joined by “and”; a condition that tells them apart may be missing. Equal values may be shown once.

System: recurrent or metastatic (R/M) adenoid cystic carcinoma (ACC)
Experiment: Phase 2 single-arm study of rivoceranib in R/M ACC: response, DoR, PFS, TTP per RECIST V1.1
Type: in vivo, human
Conditions: for estimated PFS rate at 9 months: efficacy evaluable
Description: Overall design: An ongoing Phase 2, multicenter, open-label, single-arm study was designed to evaluate the efficacy and safety of rivoceranib in patients with recurrent or metastatic (R/M) adenoid cystic carcinoma (ACC) of all anatomic sites of origin. The study was composed of an initial screening phase (up to 28 days), a treatment phase, and a follow-up phase.
Objectives: Primary objectives were to evaluate safety & tolerability, efficacy by objective response rate (ORR), best overall response (BOR), time to response, duration of response, disease control rate, and duration of disease control. Secondary objectives were to evaluate efficacy as measured by overall survival, progression-free survival and event-free survival. The primary efficacy endpoint was the ORR, defined as the proportion of patients who achieved confirmed complete response (CR) or partial response (PR) per Response Evaluation Criteria in Solid Tumors (RECIST) Version 1.1 (V1.1). The secondary efficacy endpoints were duration of response (DoR) assessed by the investigator and a blinded independent review committee (BIRC), progression-free survival (PFS) assessed at 6 months, 12 months, and 2 years by investigator and BIRC, Time to Progression (TTP) assessed by investigator and BIRC, and overall survival (OS) assessed at 1 and 2 years. Exploratory efficacy endpoints include ORR per CHOI response criteria (based on the journal article, Choi et al., Correlation of computed tomography and positron emission tomography in patients with metastatic gastrointestinal stromal tumor treated at a single institution with imatinib mesylate: proposal of new computed tomography response criteria. J Clin Oncol. 2007; 25(13): 1753-1759) by a blinded independent review […] (BIRC) and disease control rate (DCR) per RECIST V1.1 by Investigator and BIRC. Except for CHOI response criteria, all response endpoints were assessed per RECIST V1.1 by Investigator and BIRC.
Patients: The study was conducted at 11 study sites in the USA and South Korea. A total of 80 patients were enrolled and received at least 1 dose of study drug (rivoceranib). Fifty-three patients were enrolled in the USA and 27 patients were enrolled in Korea. Eligible patients were 18 years or older and were required to have histologically or cytologically confirmed R/M ACC of any anatomic location not amenable to curative surgery or radiotherapy. Due to the indolent nature of the disease, patients were required to have evidence of disease progression by RECIST V1.1 within the 6 months prior to study entry, evidenced by: ≥20% increase in radiologically or clinically measurable lesions or appearance of new lesions. Patients were required to have at least 1 measurable target lesion by RECIST V1.1. There were no restrictions on prior systemic therapies. Patients were permitted to have prior VEGFR TKI exposure if dosage was discontinued within 5 half-lives prior to rivoceranib treatment. The patients were permitted if they have an Eastern Cooperative Oncology Group (ECOG) performance status of 0 or 1. Patients with treated central nervous system metastases were permitted if they were stable for four weeks prior to study treatment. Eligible patients had documented primary diagnosis of solid tumor cancer of ACC for which anti-VEGFR-2 targeted therapy could be applicable. The majority of patients had primary tumors in the major (33.8%) or minor (58.8%) salivary glands; 6 patients (7.5%) had primary tumors in other locations: lung, breast, trachea, Cowper's gland, intracranial temporal lobe and lymph node. Median time from original ACC diagnosis was 69.62 months. The majority of patients (92.5%) had metastatic disease.
Dose determination: Enrolled patients initiated treatment with rivoceranib 700 mg daily (QD). Up to 3 levels of dose reduction for toxicity were permitted: 500 mg QD, 300 mg QD and 200 mg QD. Patients received treatment until disease progression, unacceptable toxicity, death or withdrawal of consent to treatment. […]

[1] = RECIST V1.1, BIRC, 700 mg QD start
[2] = RECIST V1.1, BIRC, Total N = 73, 700 mg QD start
[3] = RECIST V1.1, BIRC, Total N = 73, Kaplan-Meier, 700 mg QD start
[4] = RECIST V1.1, BIRC, VEGFRi-naïve N = 60, 700 mg QD start
[5] = RECIST V1.1, BIRC, VEGFRi-naïve N = 60, Kaplan-Meier, 700 mg QD start
[6] = RECIST V1.1, BIRC, VEGFRi-treated N = 13, 700 mg QD start
[7] = RECIST V1.1, BIRC, VEGFRi-treated N = 13, Kaplan-Meier, 700 mg QD start
[8] = RECIST V1.1, Investigator, 700 mg QD start
[9] = RECIST V1.1, Investigator, Systemic therapy-naïve N = 29, 700 mg QD start
[10] = RECIST V1.1, Investigator, Systemic therapy-treated N = 44, 700 mg QD start
[11] = RECIST V1.1, Investigator, Total N = 73, 700 mg QD start
[12] = RECIST V1.1, Investigator, Total N = 73, Kaplan-Meier, 700 mg QD start
[13] = RECIST V1.1, Investigator, VEGFRi-naïve N = 60, 700 mg QD start
[14] = RECIST V1.1, Investigator, VEGFRi-naïve N = 60, Kaplan-Meier, 700 mg QD start
[15] = RECIST V1.1, Investigator, VEGFRi-treated N = 13, 700 mg QD start
[16] = RECIST V1.1, Investigator, patients with ≥20% pre-study increase in lesions, N = 51
[17] = confirmed objective response by Investigator
[18] = within the 19.5-month follow-up, N = 80

N#CC1(c2ccc(NC(=O)c3cccnc3NCc3ccncc3)cc2)CCCC1 [Rivoceranib, N-[4-(1-cyanocyclopentyl)phenyl]-2-{[(pyridin-4-yl)methyl]amino}pyridine-3-carboxamide]
remaining (non-ORR) patients who had a tumor size reduction (700 mg QD start): about 85%
median PFS (Kaplan-Meier, patients previously treated with systemic therapy, 700 mg QD start): 8.9 months
median PFS (Kaplan-Meier, patients without any prior systemic therapy, 700 mg QD start): 13.7 months
ORR based on patients assessed as responders by either Investigator or BIRC (RECIST V1.1, 15 out of 73 patients, 700 mg QD start): 20.5%
estimated TTP rate at 6 months [1]: 80.7%
estimated TTP rate at 9 months [1]: 57.3%
estimated TTP rate at 12 months [1]: 41%
BOR: Complete Response [2]: 0%
BOR: Not Evaluable [2]: 1 (1.4) %
BOR: Partial Response [2]: 7 (9.6) %
BOR: Progressive Disease [2]: 5.5% and 4 (5.5) %
BOR: Stable Disease [2]: 61 (83.6) %
DCR (disease control rate, CR, PR or SD ≥3 months) [2]: 65.8% and 64.4% and 48 (65.8) %
Median TTP (95% CI) [2]: 9.3 (8.5-13.6) months
ORR (objective response rate) [2]: 9.6% and 7 (9.6) %
PFS landmark 6-months, % (95% CI) [2]: 80.8 (68.5-88.6) %
PFS landmark 12-months, % (95% CI) [2]: 38.2 (25.0-51.3) %
DoR 25th percentile [3]: 5.5 months
DoR 75th percentile [3]: 8.3 months
DoR Median (95% CI) [3]: 7.2 months and 7.2 (3.5, 8.4) months
Median PFS (95% CI) [3]: 9.2 months and 9.2 (8.0, 12.9) months
BOR: Complete Response [4]: 0%
BOR: Not Evaluable [4]: 1 (1.7) %
BOR: Partial Response [4]: 5 (8.3) %
BOR: Progressive Disease [4]: 3 (5.0) %
BOR: Stable Disease [4]: 51 (85) %
DCR (disease control rate, CR, PR or SD ≥3 months) [4]: 39 (65.0) %
Median PFS (95% CI) [4]: 9.3 (8.0-13.7) months
Median TTP (95% CI) [4]: 10.8 (8.5-13.8) months
ORR (objective response rate) [4]: 8.5% and 5 (8.3) %
PFS landmark 6-months, % (95% CI) [4]: 80.3 (66.3-88.9) %
PFS landmark 12-months, % (95% CI) [4]: 40.4 (25.6-54.6) %
DoR 25th percentile [5]: 5.4 months
DoR 75th percentile [5]: 8.3 months
BOR: Complete Response [6]: 0%
BOR: Not Evaluable [6]: 0%
BOR: Partial Response [6]: 2 (15.4) %
BOR: Progressive Disease [6]: 1 (7.7) %
BOR: Stable Disease [6]: 10 (76.9) %
DCR (disease control rate, CR, PR or SD ≥3 months) [6]: 9 (69.2) %
Median PFS (95% CI) [6]: 8.9 (5.3-12.9) months
Median TTP (95% CI) [6]: 8.9 (5.3-12.9) months
PFS landmark 6-months, % (95% CI) [6]: 83.1 (47.2-95.5) %
PFS landmark 12-months, % (95% CI) [6]: 26.0 (4.3-56.2) %
DoR 25th percentile [7]: 5.5 months
DoR 75th percentile [7]: 7.1 months
DoR Median (95% CI) [7]: 6.3 (5.5, 7.1) months
estimated PFS rate at 9 months [1]: 53.5%
estimated TTP rate at 6 months [8]: 76.2%
estimated TTP rate at 9 months [8]: 57.0%
estimated TTP rate at 12 months [8]: 43.7%
Median time to response (RECIST V1.1, Investigator, 11 responders): 57.0 days
BOR: Complete Response [9]: 0%
BOR: Not Evaluable [9]: 0%
BOR: Partial Response [9]: (20.7) %
BOR: Progressive Disease [9]: (10.3) %
BOR: Stable Disease [9]: (69.0) %
DoR 25th percentile [9]: 7.4 months
DoR 75th percentile [9]: 14.9 months
DoR Median [9]: 13.5 months
BOR: Complete Response [10]: 0%
BOR: Not Evaluable [10]: 0%
BOR: Partial Response [10]: (11.4) %
BOR: Progressive Disease [10]: (11.4) %
BOR: Stable Disease [10]: (77.3) %
DoR 25th percentile [10]: 14.6 months
DoR 75th percentile [10]: 17.3 months
DoR Median [10]: 17.3 months
BOR: Complete Response [11]: 0%
BOR: Not Evaluable [11]: 0%
Median TTP (95% CI) [11]: 9.1 (8.5-13.8) months
PFS landmark 6-months, % (95% CI) [11]: 76.3 (64.2-84.8) %
PFS landmark 12-months, % (95% CI) [11]: 39.7 (27.4-51.6) %
DoR 25th percentile [12]: 11.9 months
DoR 75th percentile [12]: 17.3 months
DoR Median (95% CI) [12]: 14.9 months and 14.9 (4.9, 17.3) months
Median PFS (95% CI) [12]: 9.0 (7.5-12.8) months
BOR: Complete Response [13]: 0%
BOR: Not Evaluable [13]: 0%
BOR: Partial Response [13]: 11 (18.3) %
BOR: Progressive Disease [13]: 6 (10.0) %
BOR: Stable Disease [13]: 43 (71.7) %
DCR (disease control rate, CR, PR or SD ≥3 months) [13]: 37 (61.7) %
Median PFS (95% CI) [13]: 9.0 (7.3-12.8) months
Median TTP (95% CI) [13]: 9.0 (7.3-13.5) months
ORR (objective response rate) [13]: 11 (18.3) %
PFS landmark 6-months, % (95% CI) [13]: 74.5 (60.7-84.1) %
PFS landmark 12-months, % (95% CI) [13]: 38.7 (25.5-51.8) %
DoR 25th percentile [14]: 11.9 months
DoR 75th percentile [14]: 17.3 months
DoR Median (95% CI) [14]: 14.9 (4.9, 17.3) months
BOR: Complete Response [15]: 0%
BOR: Not Evaluable [15]: 0%
BOR: Partial Response [15]: 0%
BOR: Progressive Disease [15]: 2 (15.4) %
BOR: Stable Disease [15]: 11 (84.6) %
DCR (disease control rate, CR, PR or SD ≥3 months) [15]: 10 (76.9) %
Median PFS (95% CI) [15]: 10.6 (7.1-17.7) months
Median TTP (95% CI) [15]: 16.4 (8.9-19.1) months
ORR (objective response rate) [15]: 0%
PFS landmark 6-months, % (95% CI) [15]: 84.6 (51.2-95.9) %
PFS landmark 12-months, % (95% CI) [15]: 43.0 (13.8-69.8) %
estimated PFS rate at 9 months [8]: 53.6%
Maximum Change in SOT During the first 6 Months on Treatment with Rivoceranib, Mean [16]: −9.9 mm
Maximum Change in SOT During the first 6 Months on Treatment with Rivoceranib, Median [16]: −7.0 mm
Maximum Change in SOT at Any Time on Treatment, Mean [16]: −10.4 mm
Maximum Change in SOT at Any Time on Treatment, Median [16]: −8.0 mm
patients with initial response observed at 100 mg [17]: 1 patient
patients with initial response observed at 200 mg [17]: 1.3%
patients with initial response observed at 300 mg [17]: 4.1%
patients with initial response observed at 500 mg [17]: 5.5%
patients with initial response observed at 700 mg [17]: 2.7%
patients who died due to disease progression or cancer despite treatment [18]: ≥ 21.3%
patients who had disease progression despite treatment [18]: 48.5%
